Results on 62 compounds are retold here after ChEMBL document CHEMBL1157539, “Thousands of chemical starting points for antimalarial lead identification” (Nature, 2010).

The test system of this test is Plasmodium falciparum. The test is described as follows: GSK_TCMDC: Inhibition of Plasmodium falciparum 3D7 in whole erythrocytes, using parasite LDH activity as an index of growth. The class given is functional, organism-based. Conditions: Plasmodium falciparum, 3D7.
For the compound `CCN1CCC(N(Cc2ccc(-c3ccc(C(F)(F)F)cc3)cc2)C(=O)Cn2nc(C)c(=O)cc2SCc2ccc(F)cc2)CC1`, the XC50 amounted to 1010 nM.
`CN1CCC(N(Cc2ccc(-c3ccc(Cl)cc3)cc2)C(=O)Cn2c(CCc3cccc(F)c3F)cc(=O)c3ccccc32)CC1` yielded an XC50 of 865 nM.
`O=c1cc(NCCCNCc2cn(S(=O)(=O)c3ccccc3)c3ccccc23)[nH]c2ccccc12`: the XC50 was found to be 879 nM.
With `N#Cc1cncc(-c2nc3c(N4CCC(Cc5ccccc5)CC4)cccc3n2CCNCc2ccccc2)c1`, the XC50 stood at 573 nM.
The compound `COc1ccc(CNCCCCCCNCc2ccc(OC)c3ccccc23)c2ccccc12` returned an XC50 of 581 nM.
`CC(C)C1=CC(=NOS(=O)(=O)c2ccccc2)C=C(C(C)C)C1=O` came in with an XC50 of 712 nM.
The compound `COc1ccc(NC(=O)[C@H](CC(C)C)Nc2cc(C)nc(Nc3ccccc3)n2)cc1` returned an XC50 of 866 nM.
For the compound `O=c1cc(NCCC2CC=CCN2Cc2ccc(Cl)c(Cl)c2)[nH]c2ccccc12` (configuration not stated), the XC50 amounted to 1730 nM.
Take `CN1CCCC(CN2CCN(Cc3ccc(-c4ccc(-c5nc6ccccc6[nH]5)s4)cc3)CC2)C1` (configuration not stated): the XC50 was 133 nM.
As to `CC(C)C[C@H](NC(=O)c1ccc(OCCN2CCOCC2)cc1)C(=O)N[C@H](/C=N/NC(=O)c1ccccc1)CCc1ccccc1`, the XC50 was 62.1 nM.
As for `COc1ccc(NC(=O)/C=C/c2ccc(Cl)c(Cl)c2)cc1N1CCN(C)CC1`, the XC50 is 980 nM.
As to `COc1ccc2cc(CNCCCCCCNCc3ccc4cc(OC)ccc4c3)ccc2c1`, the XC50 is 624 nM.
With `COC(=O)c1ccc(CC(C)NCC(O)c2ccc(C(O)CNC(C)Cc3ccc(C(=O)OC)cc3)cc2)cc1` (configuration not stated), the XC50 was determined as 1030 nM.
`O=C(Nc1ccc(OC2CCN(Cc3ccc(F)cc3)C2)cc1)c1cccs1` (configuration not stated): the XC50 was found to be 642 nM.
For `COc1ccc(C=NN=c2cc[nH]c3ccccc23)c2ccccc12` the value was 696 nM; for `CN(C)CCNC(=O)N1CCCN(c2ncnc3cc(-c4ccccc4)sc23)CC1`, 786 nM; for `CC(C)Nc1nc(NC2CCCCC2)nc(N2CCCCCCC2)n1`, 1090 nM.
Take `CCCCC1=CC2C(=O)C(C(=O)OC)=CN=C2C=C1OCc1ccccc1` (configuration not stated): the XC50 came out at 42.2 nM.
As for `N#Cc1ccc(-c2nc3c(N4CCCC4)cccc3n2CCNCc2ccccc2)cc1`, the XC50 came to 593 nM.
With `CCCc1ccc(S(=O)(=O)NC2CCN(c3ccnc(Nc4ccc(F)cc4)n3)C2)cc1` (configuration not stated) the figure was 1010 nM; with `Cc1nc(C)c(CC(=O)Nc2ccc(-c3cccc(-c4nc5cc(C(F)(F)F)ccc5[nH]4)c3)cc2)s1`, 925 nM; with `COc1cc(Cc2cnc(N)nc2N)ccc1OCC(=O)Nc1ccc(C)cc1`, 478 nM.
The compound `COc1cc(Nc2ccnc3ccc(C(F)(F)F)cc23)cc(OC)c1OC` gave an XC50 of 698 nM.
Consider `Cc1cccc2nc(-c3ccc(-c4ccc(C(=O)NCCc5cn(C)cn5)cc4)s3)[nH]c12`, for which the XC50 was found to be 960 nM.
In the case of `COc1ccc(Nc2nc(NC3CCN(C)CC3)cc(-c3ccc(OC)cc3)n2)cc1`, the XC50 worked out at 545 nM.
The compound `CC1CCN(CC[C@H]2CCCN2S(=O)(=O)c2cccc(NC(=O)c3ccc(-c4ccccc4)cc3)c2)CC1` returned an XC50 of 1260 nM.
For `Oc1cccc(Nc2nc(NCc3ccccc3)c3ccccc3n2)c1`, the XC50 turned out to be 41.3 nM.
`Cc1ccccc1C1CCN(C2CCC(NC(=O)c3ccc(-c4cc(C(F)(F)F)nn4C)s3)CC2)CC1` (configuration not stated) had an XC50 of 846 nM.
For `Cc1noc(-c2cccs2)c1C(=O)NCCc1cccc(Cl)c1` the value was 463 nM; for `CN1CCN(c2ccc(Nc3ncc([N+](=O)[O-])c(Nc4ccccc4O)n3)cc2)CC1`, 723 nM; for `Oc1ccc(CCNCCCCCCNCCc2ccc(Br)cc2)cc1O`, 1020 nM.
For `O=C(NCCN1CCCCC1)c1ccc(Nc2nccc(Nc3ccc(Oc4ccccc4)cc3)n2)cc1`, the XC50 was determined as 553 nM.
The compound `COc1ccc(CNCCCCCCCNCc2ccc(Cl)c(Cl)c2)cc1Cl` gave an XC50 of 1220 nM.
The compound `Cc1cccc2nc(-c3ccc(-c4ccc(CN5CCN(CCN6CCOCC6)CC5)cc4)s3)[nH]c12` displayed an XC50 of 245 nM.
Turning to `CN1CCC(C(=O)N(Cc2ccc(-c3ccc(CNCCc4ccc(S(C)(=O)=O)cc4)cn3)cc2)Cc2cccc(F)c2)CC1`, the XC50 stood at 706 nM.
In the case of `CCn1c(-c2nonc2N)nc2c(-c3ccc(CO)o3)ncc(OCCCN)c21`, the XC50 stood at 1360 nM.
For `CC[C@H]1CN2CC[C@@H]1C[C@H]2[C@H](O)c1cc(N2CCC(c3ccccc3)CC2)nc2ccc(OC)cc12` the value was 346 nM.
Consider `CC[C@H]1CN(CCCC(=O)c2ccccc2)CC[C@H]1CCCc1ccnc2ccc(OC(=O)c3ccccc3)cc12`, for which the XC50 amounted to 832 nM.
`NC1(C(=O)O)Cc2ccc(Cl)cc2C1` (configuration not stated) came in with an XC50 of 734 nM.
`CCCc1cc(Cc2cnc(N)nc2N)cc(CC)c1O` gave an XC50 of 1320 nM.
The compound `COc1ccc(C2CC(c3cccs3)=NN2C(=O)c2ccccc2)cc1OC` (configuration not stated) showed an XC50 of 661 nM.
For the compound `Cc1cc(Cl)ccc1NC(=O)NCCCCCN1CCC(c2c[nH]c3ccccc23)CC1`, the XC50 came out at 1010 nM.
Turning to `CCc1cn2c3c(cc(C(=O)N[C@@H](Cc4cccc(F)c4)[C@H](O)CNC4CCOCC4)cc13)N(C)S(=O)(=O)CC2`, the XC50 came to 68.1 nM.
With `CC1CCN(Cc2cccc(C(=O)NCc3ccc(F)c(-c4cccc(CN5CCN[C@@H](C)C5)c4)c3)c2)CC1`, the XC50 amounted to 1460 nM.
`c1cc(-c2ccc(CN3CCCC3)cc2)cc(-c2nc3ccccc3[nH]2)c1` yielded an XC50 of 690 nM.
`N#Cc1ccc(N2CCN(Cc3ccc(-c4ccc(-c5nc6cc(C(F)(F)F)ccc6[nH]5)cc4)cc3)CC2)nc1` showed an XC50 of 963 nM.
`COc1ccc2nc(SC(C)C(=O)c3c[nH]c4ccccc34)[nH]c2c1` (configuration not stated) showed an XC50 of 1280 nM.
In turn, `COc1ccc(NC(=O)[C@H](CC(C)C)Nc2cc(C)nc(NCCc3ccccc3OC)n2)cc1` showed an XC50 of 988 nM.
In turn, `FC(F)(F)COc1ccc(CCNCCCCNCCc2ccc(OCC(F)(F)F)c3ccccc23)c2ccccc12` had an XC50 of 648 nM.
Compound `COc1ccc(CCNCCCCCCNCCc2ccc(Cl)c(Cl)c2)cc1OC` came in with an XC50 of 926 nM.
`OCCN1CCN(Cc2ccc(-c3cccc(-c4nc5ccccc5[nH]4)c3)cc2)CC1` gave an XC50 of 749 nM.
`CN(C)CCN(C)Cc1ccc(-c2ccc3c(Nc4ccc(Oc5ccccc5)cc4)ccnc3c2)o1`: the XC50 was determined as 179 nM.
`CCCCCCCN1CC[C@@H](CCCc2ccnc3ccc(OC)cc23)[C@@H](CCN)C1`: the XC50 is 748 nM.
`O=C(CCCC(=O)Nc1ccc(C2=NCCN2)cc1)Nc1ccc(C2=NCCN2)cc1`: the XC50 is 106 nM.
With `Cc1cc2c(cc1Cl)N(C(=O)Nc1cc(F)cc(-c3cncnc3)c1)CC2` the figure was 377 nM; with `Nc1ccnc2ccc(OCCCCCCc3ccccc3)cc12`, 524 nM.
For the compound `COc1cc(NC(=O)Nc2ccc(Br)cc2C(=O)Nc2ccc(Br)cc2)cc(OC)c1OC`, the XC50 turned out to be 761 nM.
`CC1(C)CCCN(C(=O)c2cccc(-n3nc(-c4ccc(Cl)cc4)cc3N)c2)C1` registered an XC50 of 712 nM.
Compound `O=C(/C=C/c1ccc(Cl)c(Cl)c1)NCCCCCCN1CCN(C(=O)Nc2ccc(OC(F)F)cc2)CC1` registered an XC50 of 679 nM.
`Cc1c(S(=O)(=O)Nc2ccc3nccc(N4CCN[C@H](C)C4)c3c2)sc2ccc(Cl)cc12` showed an XC50 of 842 nM.
For `CC(C)NC(=O)c1cccc(-c2ccc(OCCN3CCCC3c3cc4ccccc4[nH]3)cc2)c1` (configuration not stated), the XC50 was found to be 958 nM.
For `CN1CCN(c2ccnc3ccc(NC(=O)Nc4cccc5c(-c6ccncc6)cccc45)cc23)CC1` the value was 877 nM.
